We go through 39 compounds from patent publication US20110105496A1, “Methods For The Treatment Of Myosin Heavy Chain-Mediated Conditions Using 4,7-Dihydrothieno[2,3-B]Pyridine Compounds” (priority 2005, published 2011).

The test system of the test is alpha-MyHC. The test can be described thus: alpha-MyHC cytoblot process in neonatal rat ventricular myocytes (NRVM). It is filed as cell-based. The conditions noted are these: Table 1, NRVM, 72 hours; for EC50: alpha-MyHC cytoblot, mean ± spread; for Max Plateau: maximum of dose response fit, low control = vehicle only. Here is the method:
In vitro activity of each compound is measured using the alpha-MyHC cytoblot process. Briefly, neonatal rat ventricular myocytes (NRVM) at 120,000 cells/ml in HyQ DME/High modified culture media supplemented with 10% charcoal/dextran treated FBS, 0.1% Nutridoma-SP, 1:100 MEM non-essential amino acids, 1:50 MEM amino acids solution w/o L-Gln, 1 mM sodium pyruvate and 1:100 P/S/G, are plated on gelatin coated sterile 384-well plates (Costar 3712) at 6,000 cells per well. Cells are incubated overnight at 37° C. in 5% CO2 100% humidity. Following overnight growth the media is changed to HyQ DME/High modified culture media supplemented with 0.3% Nutridoma-SP, 1:100 MEM non-essential amino acids, 1:50 MEM amino acids solution w/o L-Gln, 1 mM sodium pyruvate and 1:100 P/S/G. Cells are then dosed with serial dilutions of each compound in DMSO. Each concentration in the dose range is dosed in quadruplicate. Dosing is done in such a way so that the final DMSO concentration was 0.44%. Compound dilutions are 3-fold with the final top concentration of 10 uM. […] Following dosing, the cells are incubated for 72 hours at 37° C. in 5% CO2 100% humidity and then processed with the cytoblot method. Briefly, cell media is aspirated and cell monolayers washed with PBS and fixed with 100% methanol for 30 minutes. Fixed cells are then blocked with PBS, 0.05% Tween-20, 1% BSA, for 1 hour. Following blocking, cells are incubated with primary alpha-MyHC-specific antibody antibody (1:30 dilution of BA-G5 hybridoma conditioned media, ATCC HB276) for 1 hour. Following incubation with the primary antibody, cells are washed with PBS, 0.05% Tween-20, 1% BSA and incubated with secondary antibody (1:1000 dilution, goat-anti-mouse HRP, Southern Biotech, 1031-05) for 1 hour. Following incubation with the secondary antibody, wells are washed and incubated in SuperSignal, West Dura HRP-luminescence substrate for 30 seconds under shaking at room temperature. Luminescence is measured using a Packard Fusion plate reader. […] RLU values are converted into per cent fraction of low control and dose responses are fitted to a sigmoidal 4-parameter equation (XLFit, IDBS) where the EC50 and Max Plateau values were extracted. […] Max Plateau is the […] maximum value determined by the dose response fit.

For orientation: EC50 means the concentration at which the effect is half-maximal. Read a high EC50 as a less potent agent. For `CC(=O)C1=C(C)Nc2sc(C(=O)c3ccc(Cl)c(Cl)c3)c(N)c2C1c1ccc(Br)cc1` (stereo not drawn) [Compound 22], the EC50 was determined as 2070 nM and the “Max Plateau” value is 174.35 ± 23.39 per cent fraction of low control. Taken in the same sequence, the figures for `CC(=O)C1=C(C)Nc2sc(C(=O)c3ccc(Cl)c(Cl)c3)c(N)c2C1c1ccc(O)cc1` (stereo not drawn) [Compound 23] were 339 nM and 277.53 ± 33.46 per cent fraction of low control. For `CC(=O)C1=C(C)Nc2sc(C(=O)c3ccccc3)c(N)c2C1c1ccccc1F` (stereo not drawn) [Compound 24], in that order: 273 nM and 260.35 ± 43.53 per cent fraction of low control. In the case of `CC(=O)C1=C(C)Nc2sc(C(=O)c3ccc(Cl)c(Cl)c3)c(N)c2C1c1ccc(CNC(=O)OC(C)(C)C)cc1` (stereo not drawn) [Compound 25], the “Max Plateau” value is 100.00 ± 0.00 per cent fraction of low control. In the case of `CC(=O)C1=C(C)Nc2sc(C(=O)c3ccccc3)c(N)c2C1C1CCCCC1` (stereo not drawn) [Compound 26], a half-maximal response (EC50) required 943 nM and the “Max Plateau” value is 185.33 ± 55.04 per cent fraction of low control. For the compound `CC(=O)C1=C(C)Nc2sc(C(=O)c3ccc(Cl)c(Cl)c3)c(N)c2C1c1ccccc1F` (stereo not drawn) [Compound 27], the EC50 came to 86.4 nM and the “Max Plateau” value was 220.13 ± 23.10 per cent fraction of low control. Taken in the same sequence, the figures for `CC(=O)C1=C(C)Nc2sc(C(=O)c3ccc(Cl)c(Cl)c3)c(N)c2C1c1ccc(O)cc1Cl` (stereo not drawn) [Compound 29] were 15.5 nM and 281.88 ± 32.78 per cent fraction of low control. In the case of `Nc1c(C(=O)c2ccccc2)sc2c1C(c1ccccc1)C(C(=O)c1ccccc1)=C(c1ccccc1)N2` (stereo not drawn) [Compound 30], the “Max Plateau” value was 100.00 ± 0.00 per cent fraction of low control. On the same count and under the same terms, the result for `CC(=O)C1=C(C)Nc2sc(C(=O)c3ccc(Cl)c(Cl)c3)c(N)c2C1c1cccc2c1OCO2` (stereo not drawn) [Compound 31] reads 121.08 ± 18.32 per cent fraction of low control; that for `CC(=O)C1=C(C)Nc2sc(C(=O)c3ccc(Cl)c(Cl)c3)c(N)c2C1c1ccc(C(C)(C)C)cc1` (stereo not drawn) [Compound 32], 100.00 ± 0.00 per cent fraction of low control. Consider `CC(=O)C1=C(C)Nc2sc(C(=O)c3ccc(Cl)c(Cl)c3)c(N)c2C1c1cc(Cl)cc(Cl)c1` (stereo not drawn) [Compound 33], for which a half-maximal response (EC50) required 1950 nM and the “Max Plateau” value is reported as 143.15 ± 21.22 per cent fraction of low control. For `CC(=O)C1=C(C)Nc2sc(C(=O)c3ccc(Cl)c(Cl)c3)c(N)c2C1c1ccccc1O` (stereo not drawn) [Compound 34], in that order: 1250 nM and 184.69 ± 15.76 per cent fraction of low control.

As to `CCC(=O)C1=C(CC)Nc2sc(C(=O)c3ccc(Cl)c(Cl)c3)c(N)c2C1c1ccccc1` (stereo not drawn) [Compound 36], the EC50 is 6.18 nM and the “Max Plateau” value is 256.56 ± 24.93 per cent fraction of low control. Taken in the same sequence, the figures for `CC(=O)C1=C(C)Nc2sc(C(=O)c3ccccc3)c(N)c2C1c1ccc(F)cc1` (stereo not drawn) [Compound 37] were 281 nM and 227.92 ± 12.46 per cent fraction of low control.

As to `CCC(=O)C1=C(CC)Nc2sc(C(=O)c3ccc(Cl)c(Cl)c3)c(N)c2C1c1ccccc1Cl` (stereo not drawn) [Compound 38], the EC50 turned out to be 16.1 nM and the “Max Plateau” value is given as 288.93 ± 52.81 per cent fraction of low control.

On to `CCC(=O)C1=C(CC)Nc2sc(C(=O)c3ccc(Cl)c(Cl)c3)c(N)c2C1c1c(F)cccc1Cl` (stereo not drawn) [Compound 40], for which the EC50 was 14.4 nM and the “Max Plateau” value is recorded as 244.87 ± 7.92 per cent fraction of low control. Take `CC(=O)C1=C(C)Nc2sc(C(=O)c3ccc(Cl)c(Cl)c3)c(N)c2C1c1cccs1` (stereo not drawn) [Compound 41]: the EC50 came out at 369 nM and the “Max Plateau” value is 178.47 ± 7.82 per cent fraction of low control. For `CC(=O)C1=C(C)Nc2sc(C(=O)c3ccc(Cl)c(Cl)c3)c(N)c2C1c1ccc[nH]1` (stereo not drawn) [Compound 42], in that order: 4590 nM and 160.56 ± 20.02 per cent fraction of low control. Taken in the same sequence, the figures for `CC(=O)C1=C(C)Nc2sc(C(=O)c3ccccc3)c(N)c2C1c1ccc(C(F)(F)F)cc1` (stereo not drawn) [Compound 44] were 1720 nM and 186.67 ± 11.55 per cent fraction of low control. In the case of `CC(=O)C1=C(C)Nc2sc(C(=O)c3ccc(Cl)c(Cl)c3)c(N)c2C1c1ccc(C)cc1` (stereo not drawn) [Compound 45], the “Max Plateau” value was 108.63 ± 9.14 per cent fraction of low control. Still for that read-out and setting: to `CC(C)C(=O)C1=C(C(C)C)Nc2sc(C(=O)c3ccc(Cl)c(Cl)c3)c(N)c2C1c1ccccc1` (stereo not drawn) [Compound 46] belongs 98.33 ± 4.08 per cent fraction of low control. For `CC(=O)C1=C(C)Nc2sc(C(=O)c3ccc(Cl)c(Cl)c3)c(N)c2C1c1ccc(Cl)c(Cl)c1` (stereo not drawn) [Compound 47], the EC50 was determined as 116 nM and the “Max Plateau” value was 173.47 ± 25.64 per cent fraction of low control. For `CC(=O)C1=C(C)Nc2sc(C(=O)c3ccc(Cl)c(Cl)c3)c(N)c2C1c1ccc(C(F)(F)F)cc1` (stereo not drawn) [Compound 48], in that order: 5110 nM and 190.81 ± 37.09 per cent fraction of low control. Regarding `CCC(=O)C1=C(CC)Nc2sc(C(=O)c3cccc(F)c3)c(N)c2C1c1ccccc1` (stereo not drawn) [Compound 49], the EC50 stood at 14.4 nM and the “Max Plateau” value is given as 299.18 ± 42.31 per cent fraction of low control. `CC(=O)C1=C(C)Nc2sc(C(=O)c3ccc(Cl)c(Cl)c3)c(N)c2C1c1ccc(F)cc1` (stereo not drawn) [Compound 50]: the EC50 stood at 161 nM and the “Max Plateau” value was 190.79 ± 27.94 per cent fraction of low control. Take `CC(=O)C1=C(C)Nc2sc(C(=O)c3ccc(Cl)c(Cl)c3)c(N)c2C1c1ccc(Cl)cc1Cl` (stereo not drawn) [Compound 52]: the “Max Plateau” value was 122.73 ± 20.55 per cent fraction of low control. Consider `CCC(=O)C1=C(CC)Nc2sc(C(=O)c3ccc(Cl)c(Cl)c3)c(N)c2C1c1ccccc1Cl` (stereo not drawn) [Compound 53], for which the response was half-maximal at 58.1 nM (EC50) and the “Max Plateau” value is given as 259.43 ± 26.30 per cent fraction of low control. Taken in the same sequence, the figures for `CCC(=O)C1=C(CC)Nc2sc(C(=O)c3ccc(Cl)c(Cl)c3)c(N)c2C1c1cccc(Cl)c1` (stereo not drawn) [Compound 54] were 0.59 nM and 267.44 ± 32.29 per cent fraction of low control. For `CC(=O)C1=C(C)Nc2sc(C(=O)c3ccc(Cl)c(Cl)c3)c(N)c2C1c1cc(F)cc(F)c1` (stereo not drawn) [Compound 55], it took 45.2 nM to reach a half-maximal effect (EC50) and the “Max Plateau” value was 229.93 ± 37.33 per cent fraction of low control. Taken in the same sequence, the figures for `CCC(=O)C1=C(CC)Nc2sc(C(=O)c3ccc(Cl)c(Cl)c3)c(N)c2C1c1ccccc1C` (stereo not drawn) [Compound 56] were 42.9 nM and 293.74 ± 50.82 per cent fraction of low control. For `CC(=O)C1=C(C)Nc2sc(C(=O)c3ccccc3Cl)c(N)c2C1c1ccccc1` (stereo not drawn) [Compound 57], in that order: 1250 nM and 246.00 ± 16.33 per cent fraction of low control. On to `CCC(=O)C1=C(CC)Nc2sc(C(=O)c3ccc(Cl)c(Cl)c3)c(N)c2C1c1cccc([N+](=O)[O-])c1` (stereo not drawn) [Compound 58], for which the 50% effective concentration (EC50) stood at 129 nM and the “Max Plateau” value is given as 232.20 ± 56.57 per cent fraction of low control. On to `CCC(=O)C1=C(CC)Nc2sc(C(=O)c3ccc(Cl)c(Cl)c3)c(N)c2C1c1ccccc1[N+](=O)[O-]` (stereo not drawn) [Compound 59], for which the midpoint of the response, the EC50, lay at 425 nM and the “Max Plateau” value is on record as 152.77 ± 11.42 per cent fraction of low control. For the compound `CCC(=O)C1=C(CC)Nc2sc(C(=O)c3ccc(Cl)c(Cl)c3)c(N)c2C1c1ccccc1C(F)(F)F` (stereo not drawn) [Compound 60], the “Max Plateau” value is recorded as 100.00 ± 0.00 per cent fraction of low control. With `CC(=O)C1=C(C)Nc2sc(C(=O)c3cccc(F)c3)c(N)c2C1c1ccccc1` (stereo not drawn) [Compound 61], the response was half-maximal at 97.1 nM (EC50) and the “Max Plateau” value is reported as 230.65 ± 55.61 per cent fraction of low control. Taken in the same sequence, the figures for `COC(=O)c1cccc(C(=O)c2sc3c(c2N)C(c2ccccc2)C(C(C)=O)=C(C)N3)c1` (stereo not drawn) [Compound 62] were 361 nM and 279.31 ± 67.94 per cent fraction of low control. In the case of `CCC(=O)C1=C(CC)Nc2sc(C(=O)c3ccc(Cl)c(Cl)c3)c(N)c2C1c1c(F)cccc1F` (stereo not drawn) [Compound 63], the EC50 was 20.8 nM and the “Max Plateau” value is listed as 230.07 ± 45.59 per cent fraction of low control. For `CCC(=O)C1=C(CC)Nc2sc(C(=O)c3cc(Cl)ccc3Cl)c(N)c2C1c1ccccc1` (stereo not drawn) [Compound 64], in that order: 10.2 nM and 281.39 ± 54.54 per cent fraction of low control. As for `CC(=O)C1=C(C)Nc2sc(C(=O)c3cccc(C(=O)O)c3)c(N)c2C1c1ccccc1` (stereo not drawn) [Compound 65], the “Max Plateau” value was 100.00 ± 0.00 per cent fraction of low control.
